Here are results for one compound from paper PMC9696361, “Nanocrystallization Improves the Solubilization and Cytotoxic Effect of a Poly (ADP-Ribose)-Polymerase-I Inhibitor” (Polymers, 2022).

Data set [1] is described as follows: Oral pharmacokinetic study in rats. In kind it is in vivo, Male Wistar rats. How it is done:
Male Wistar rats were used for this study. The Standing Committee of Bioethics Research (SCBR) at Prince Sattam bin Abdulaziz University, Deanship of Scientific Research has granted the animal ethical approval (SCBR-030-2022) for in vivo studies on rats. Twelve rats were divided in two groups. Group-1 for OLA-AqS and Group-II for OLA-NCs. Each animal of the respective groups received OLA-AqS and OLA-NCs individually. Oral route was selected for the administration of all OLA formulations at 25 mg·kg^−1 of body weight equivalent dose of OLA was given orally to all animals. At predetermined time points (0.25, 0.5, 1, 3, 6 and 9 h) approximately 0.5 mL of blood was aspirated through retro orbital plexus from each animal. The samples were collected in heparinized tubes and centrifuged at 6000 rpm for 10 min and at 4 °C to obtain the plasma. Approximately 200 µL supernatant (plasma) was collected and stored at −80 °C till analysis was performed.
Previously reported RP-HPLC method was used for the analysis of OLA in the plasma samples [7, 20]. In brief, the HPLC system (Waters® 1500 Series, Milford, MA, USA) was fitted out with UV-dual absorbance detector (Waters® Model-2489), Binary pump (Waters® Moel-1525), Autosampler (Waters® Model-2707 plus). The HPLC-UV system was monitored and controlled by the “Breeze software”. A C18 Waters symmetry column (150 × 4.6 mm, 5 µm, particle size) was used for the elution of OLA and Paclitaxel (used as internal standard, IS). The mobile phase composed of ammonium acetate buffer (pH was adjusted to 3.5 by Orthophosphoric acid) and Methanol at 50:50 (v/v) was pumped at isocratic mode at the flow rate of 1 mL·min^−1. The UV-detection wavelength was 254 nm (for OLA) and 230 nm (for IS). The column heater temperature was set to 35 °C and the volume of injection was 30 µL.
Protein precipitation method (simple with high recovery) was used for the drug extraction from the collected plasma samples. The calibration curve samples were prepared by pipetting 50 μL of working stock solution of OLA (in methanol) and 20 μL of IS (20 µg/mL) into 140 μL of plasma and the mixture was vortexed for 30 s. Acetonitrile (290 μL) was added into the obtained mixture for protein precipitation, vortexed for 2 min and then centrifuged at 13,500 rpm for 10 min. Approximately 200 µL of the supernatant was collected and 30 µL of the supernatant was injected into HPLC system for the quantification of the drugs in the samples.
The results were represented as mean with standard deviation (± SD), unless otherwise indicated. The statistical analysis was performed using GraphPad Prism: Version-5.1 (GraphPad Software, Inc., San Diego, CA, USA). The pharmacokinetics parameters was calculated by “PK-Solver Software, Nanjing, China using MS-Excel-2013” through the non-compartmental approach. The comparative analysis of the data was accomplished by Student’s t-test and p < 0.05 was considered as statistically significant, unless otherwise indicated.

The test system of another data set is Caspase-9. In words: Caspase-9 by ELISA in MCF-7 cells. It counts as cell-based, human. The note with it: OLA 10 µgmL^−1, vs untreated control. How it is done:
(§1) The p53, Caspase-3 and Caspase-9 activities were measured by ELISA kits following the manufacture’s protocol and reported works. The MCF-7 cells (5 × 10^4 cells/well) were seeded in 96-well plates. The seeded cells were treated with the AqS of OLA-pure and OLA-NCs. The concentration of OLA was kept 10 µgmL^−1, which was approximately near to the IC50 value of the OLA-NCs-2 (9.71 µgmL^−1). The untreated cells were served as control. All the treated cells were allowed to equilibrate at ambient temperature. Approximately 100 µL of p53, Caspase-3 and Caspase-9 reagents were transferred into the respective wells of the plate containing 100 µL of culture media. The plates were covered and stirred for 1–2 min at 500 rpm and then incubated at ambient temperature. After 1 h of incubation the OD was measured at 405 nm wavelength by microplate reader.

Details of data set [2]: method as in PMID 24700236. The conditions noted are these: cited from earlier work.
The test system of a further data set is Caspase-3. Nature of the data set: Caspase-3 by ELISA in MCF-7 cells. It counts as cell-based, human. The conditions noted are these: OLA 10 µgmL^−1, vs untreated control. How it is done: as §1
The subject of a further data set is MCF-7 cells. In words: MTT or cell proliferation assay. The note with it: Homo sapiens, MCF7, 48 h, 48 h of incubation, MTT. It counts as cell-based. How it is done: The MCF-7 cells were procured from the American Type Cutler Collection (Manassas, VA, USA). Cells were grown in 50 cm^2 tissue culture flasks using “Dulbecco’s Modified Eagle Medium (DMEM) (UFC Biotech, Riyadh, Saudi Arabia)” at 37 °C in an incubator humidified by 5% CO2. The media was accompanied with 10% fetal bovine serum (Alpha Chemika, Mumbai, India), 1% mixture of Penicillin (100 units·mL^−1): Streptomycin (100 µg·mL^−1) by ThermoFischer Scientific, Waltham, MA, USA, Amphotericin-B (250 ngmL^−1) by Gibco® (Grand Island, NY, USA) and 1% of L-glutamine (BioWest, Riverside, MO, USA). The MTT was purchased from Sigma Aldrich, St. Louis, MO, USA. […]
The anticancer activity of pure drug (OLA)-AqS and OLA-NCs-2 against MCF-7 were examined by assessing the viability of the treated cells by MTT assay. […] The assay was done by observing the enzymatic reduction of a water-soluble dye [3-(4,5-dimethylthiazol-2-yl)-2,5-diphenyltetrazolium bromide] into an insoluble formazan, where the quantitation of formazan designates the relative viability of the cells. […] Optical density (OD) was measured at 570 nm using the spectrophotometric microplate reader (Synergy HT, BioTek Instruments, Winooskim, VT, USA). The cell viability (%) was calculated by Equation (4). […] The IC50 values were calculated as Log (inhibitor) versus normalized response on variable slopes through GraphPad Prism V-5.1. […]

Another data set concerns P-glycoprotein (Pgp). Further details: method as in PMID 24700236. The note with it: cited from earlier work.
The nature of data set [3]: Oral pharmacokinetic study in rats. In kind it is in vivo, Male Wistar rats. This is another data set of the same source.
Another data set relates to p53. In words: p53 by ELISA in MCF-7 cells. It counts as cell-based, human. The conditions noted are these: OLA 10 µgmL^−1, vs untreated control. How it is done: as §1
Data set [4] can be described thus: Saturation solubility of pure OLA and its NCs. It counts as physicochemical. The conditions noted are these: thermodynamic from solid. How it is done: The excess amount of pure OLA and NCs in triplicate were added into 1 mL of each solvent in glass vials. The mixtures were vortexed for 30 s and put into an orbital shaking (at 100 stroke per min) water bath (Julabo®, Allentown, PA, USA) maintained at 37 ± 1 °C for 72 h. Thereafter, vials were taken out and kept at room temperature for 24 h to settle down the undissolved drugs. Then, the supernatants were collected, filtered by 0.45 µ filtration unit (Millipore, Molsheim, France), diluted (if needed) and 30 µL was injected into HPLC-UV system for the quantification of the dissolved drugs.

The mark [5] stands for this setting: male, Wistar, rat, plasma, single oral dose 25 mg·kg^−1.

In brackets after ≈: the same amount, converted by molar mass.

For `O=C(c1cc(Cc2n[nH]c(=O)c3ccccc23)ccc1F)N1CCN(C(=O)C2CC2)CC1` [OLA, Olaparib], the AUC(0-inf) in [1] (setting [5]) came out at 913 ± 138 ng·h/mL. Further, the time to peak (Tmax) in data set [1] (setting [5]) is 2 h. Moreover, the half-life in data set [1] (setting [5]) was 1.36 ± 0.04 h. Further, in data set [1] (male, Wistar, rat, plasma, single oral dose 25 mg·kg^−1, read-out: MRT0-∞), the MRT inf worked out at 3.37 ± 0.03 h. Besides, in data set [1] (male, Wistar, rat, single oral dose 25 mg·kg^−1, plasma), the Cmax is 278 ± 46.5 ng/mL. Further, in data set [1] (single oral dose 25 mg·kg^−1), the “AUMC0-∞” value is given as 3081.17 ± 471.32 ng·mL^−1·h^2. Further, the Cl/F was 6.94 ± 0.96 L/h in data set [1] (single oral dose 25 mg·kg^−1, listed as OLA-Pure) and 6.94 L/h in data set [1] (single oral dose 25 mg·kg^−1, listed as OLA-pure). In addition, the “Increased expression of Caspase-9 vs control” value in the data set with Caspase-9 is ~2 folds. Also, the “Solubility at intestinal fluid pH” value in [2] is 0.16 mg·mL^−1. Further, in the data set with Caspase-3, the “Increased activities of Caspase-3 vs control” value is “approximately 4.3 folds”. Further, the IC50 with MCF-7 cells is 28.4 µg/mL. The “Concentration at which the Pgp-mediated efflux is saturated” value in the data set with P-glycoprotein (Pgp) was > 260 µM. Further, in [3] (male, Wistar, rat, plasma, single oral dose 25 mg·kg^−1, read-out: AUC0–12 h), the AUC(0-t) came to 882 ± 137 ng·h/mL. For the same compound, the “Last plasma sample in which the drug was detected” value in data set [3] (oral, undetected in 10 h and 12 h samples) was “up to 8 h”. The “p53 protein expression, times higher than control” value with p53 was 7.2 times. In addition, the solubility in data set [4] (0.1N HCl with 0.5% Soluplus, 37 °C, aqueous with cosolvent or surfactant or cyclodextrin, in 0.1N HCl (pH 1.2) with 0.5% Soluplus) was 31.1 ± 3.9 µg/mL (≈ 71.6 µM); in data set [4] (0.1N HCl with 0.5% Tween-80, 37 °C, aqueous with cosolvent or surfactant or cyclodextrin, in 0.1N HCl (pH 1.2) with 0.5% Tween-80) it was 12.7 ± 3.9 µg/mL (≈ 29.2 µM); in data set [4] (37 °C, simulated gastric fluid, in 0.1N HCl (pH 1.2)) it was 7.1 ± 2.7 µg/mL (≈ 16.3 µM). The solubility at 72 h in [4] (phosphate buffer (PBS) with 0.5% Soluplus, pH 7.4, aqueous with cosolvent or surfactant or cyclodextrin, in PBS with 0.5% Soluplus, 37 °C) was 35.6 ± 7.2 µg/mL (≈ 81.9 µM); in data set [4] (phosphate buffer (PBS) with 0.5% Tween-80, pH 7.4, aqueous with cosolvent or surfactant or cyclodextrin, in PBS with 0.5% Tween-80, 37 °C), 14.2 ± 5.1 µg/mL (≈ 32.7 µM); in data set [4] (phosphate buffer (PBS), pH 7.4, aqueous buffer, in PBS, 37 °C), 9.3 ± 2.4 µg/mL (≈ 21.4 µM).
